From patent US9056835B2, “LPA2 receptor-specific benzoic acid derivatives” (University of Tennessee Research Foundation, priority 2012, dated 2015)

How the values were obtained:
LPA2 = LPA2 (Homo sapiens, UniProt Q9HBW0); assay: Fura-2AM Ca2+ mobilization in LPA2 DKO MEF cells; type: cell-based; design: expressed in transfected cells; host or cells: mouse embryonic fibroblasts from LPA1/2 double-knockout mice, lentiviral transduction; settings: LPA2 Ca2+ mobilization in DKO MEF cells, mean fluorescence ratio
Chain of LPA2 (Q9HBW0 whole entry): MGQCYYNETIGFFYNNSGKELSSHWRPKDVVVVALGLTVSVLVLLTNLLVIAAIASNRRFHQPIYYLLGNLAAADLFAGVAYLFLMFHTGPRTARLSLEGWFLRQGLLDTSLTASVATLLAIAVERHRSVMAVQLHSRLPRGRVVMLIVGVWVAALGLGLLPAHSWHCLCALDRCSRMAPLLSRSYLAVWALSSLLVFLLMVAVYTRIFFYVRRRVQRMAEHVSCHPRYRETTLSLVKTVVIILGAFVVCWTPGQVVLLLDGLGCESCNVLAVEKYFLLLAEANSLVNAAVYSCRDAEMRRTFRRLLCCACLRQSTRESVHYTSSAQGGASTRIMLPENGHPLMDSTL
Experimental: (§1) Fluorescence was read every 3.42 seconds for a total of 70 seconds at Ex/Emλ of 340/510 nm and 380/510 nm. Data (relative fluorescence) was then recorded as a mean fluorescence ratio value of the triplicates for each concentration. Graph Pad Prism version 5.0a was then used to fit a non-linear regression curve in a variable slope model (A) to determine the EC50, Emax, and curve fit (R^2)(B).
Mouse embryonic fibroblast (MEF) cells used in this study isolated from LPA1/2 double knock out (LPA2-DKO) mice {Lin, 2007 #132}. These MEF express LPA4/5/6 receptors endogenously at lower levels but completely lack LPA1/2/3 receptor subtypes. The human LPA2 receptor was reintroduced into these MEF cells by lentiviral transduction, which are designated LPA2 DKO MEF {Lin, 2007 #132}. Empty vector-transduced MEF cells, designates as EV DKO MEF, were used as a control. Cells were cultured in a DMEM supplemented with 10% v/v fetal bovine serum (FBS), 2 mM L-glutamine, 100 U/ml penicillin, and 100 μg/mL streptomycin. During serum starvation, the growth medium was replaced with DMEM containing 0.1% (w/v) BSA.
as §1

MM1 hepatoma cells = assay: MM1 hepatoma cell invasion of endothelial monolayer; type: cell-based, rat; settings: LPA 1 μM, GRI977143 10 μM, 20 h
Experimental: Mouse embryonic fibroblast (MEF) cells were isolated from E13.5 LPA1&2 double knockout (DKO) embryos. MEFs were transduced with empty vector or LPA2-containing lentiviruses and selected with 1.5 μg/ml puromycin. Cells were maintained in Dulbecco's modified Eagle medium (DMEM) supplemented with 10% (V/V) fetal bovine serum (FBS), 2 mM L-glutamine, 100 U/mL penicillin, and 100 μg/mL streptomycin. Serum-free medium contained 0.1% (W/V) BSA in DMEM. The rat intestinal epithelial cell line 6 (IEC-6) was obtained from the American Type Culture Collection (Rockville, Md.) at passage 13; passages 16-21 were used in all experiments. IEC-6 cells were maintained in a humidified 37° C. incubator in an atmosphere of 90% air and 10% CO2. Growth medium consisted of DMEM supplemented with 5% heat inactivated FBS, 10 μg/mL insulin, and 50 μg/mL gentamycin. […]
HUVEC (1.3×10^5 cells at passages 5 to 7) were seeded into each well of a 12-well plate pre-coated with 0.2% gelatin (Sigma-Aldrich). […] Tumor cells that penetrated the monolayer were photographed using a NIKON TiU inverted microscope with phase-contrast and fluorescence illumination. […] A total of five non-overlapping fields was imaged per well, and the number of invaded MM1 cells (displaying a flattened morphology underneath the monolayer) was counted.

Emax (MFR) (LPA2) | Compound | MM1 cell invasion of HUVEC monolayers (MM1 hepatoma cells)
1.2 | CCCCCCCC/C=C\CCCCCCCC(=O)OC[C@@H](O)COP(=O)(O)O [LPA 18:1, Lysophosphatidic acid (18:1)] | significant increase
 | O=C(O)c1ccccc1SCCCN1C(=O)c2cccc3cccc(c23)C1=O [GRI977143] | significant increase
